Data: US8962681B2, “Use of aminoacetonitrile derivatives against endoparasites” (Zoetis LLC, priority 2011, dated 2015)
Read-outs that look alike come from different tables or passages of the source.

Assays:
[1] = tested on: L4 stage larvae of D. immitis; experiment: L4 stage larvae motility/kill assay; format: cell-based, Dirofilaria immitis
[2] = tested on: Dirofilaria immitis microfilariae; experiment: in vitro microwell motility assay against heartworm microfilariae; format: cell-based; details: microfilaria from canine blood, 384 well plate, 72 hours incubation at 37° C. and 5% CO2, LemnaTec Scanalyzer
[3] = screened at 10 μM in duplicate, 96-well plate, motility observed at 4, 24, 48 and 72 hours, endpoint defined as ED80 (80% of larvae killed)

Molecule	active against L4 D. immitis at 10 μM [1, 3]	ED50 (dose at which the overall microfilaria motility was reduced by 50% compared to that of an untreated control) [2] [µM]	active against L4 D. immitis at 10 μM [1]
CC(C#N)(COc1ccccc1Cl)NC(=O)c1ccc(S(F)(F)(F)(F)F)cc1 (centres unmarked) [test compound 16, N-[2-(2-chlorophenoxy)-1-cyano-1-methylethyl]-4-(pentafluorothio)benzamide]	active	33	–
CC(C#N)(COc1ccc(-c2ccncc2)cc1C(F)(F)F)NC(=O)c1ccc(S(F)(F)(F)(F)F)cc1 (centres unmarked) [test compound 81, N-{1-cyano-1-methyl-2-[4-pyridin-4-yl-2-(trifluoromethyl)phenoxy]ethyl}-4-(pentafluorothio)benzamide]	active	3.3	–
CC(C#N)(COc1cc(C#N)ccc1C(F)(F)F)NC(=O)c1ccc(S(F)(F)(F)(F)F)cc1 (centres unmarked) [test compound 1, N-{1-cyano-2-[5-cyano-2-(trifluoromethyl)phenoxy]-1-methylethyl}-4-(pentafluorothio)benzamide]	active	10	–
C[C@](C#N)(COc1ccc(C#N)cc1C(F)(F)F)NC(=O)c1ccc(S(F)(F)(F)(F)F)cc1 [test compound 51a]	active	10	–
Cc1ccc(C#N)cc1OCC(C)(C#N)NC(=O)c1ccc(S(F)(F)(F)(F)F)cc1 (centres unmarked) [test compound 43, N-[1-cyano-2-(5-cyano-2-methylphenoxy)-1-methylethyl]-4-(pentafluorothio)benzamide]	active	10	–
CC(C#N)(COc1ccc(Cl)cc1Cl)NC(=O)c1ccc(S(F)(F)(F)(F)F)cc1 (centres unmarked) [test compound 8, N-[1-cyano-2-(2,4-dichlorophenoxy)-1-methylethyl]-4-(pentafluorothio)benzamide]	active	–	–
CO[C@H]1C[C@H](O[C@@H]2/C(C)=C/C[C@@H]3C[C@@H](C[C@]4(CC[C@H](C)[C@@H](C5CCCCC5)O4)O3)OC(=O)[C@@H]3C=C(C)/C(=N/O)[C@H]4OC/C(=C\C=C\[C@@H]2C)[C@]43O)O[C@@H](C)[C@@H]1O [Selamectin, reference compound]	–	–	active
milbemycin oxime [reference compound]	active	–	–
ivermectin [reference compound]	–	–	active
CC(C#N)(COc1ccc(F)cc1Cl)NC(=O)c1ccc(S(F)(F)(F)(F)F)cc1 (centres unmarked) [test compound 18, N-[2-(2-chloro-4-fluorophenoxy)-1-cyano-1-methylethyl]-4-(pentafluorothio)-benzamide]	active	33	–
CC(C#N)(COc1cc(C#N)ccc1Oc1ccc(F)cc1Cl)NC(=O)c1ccc(S(F)(F)(F)(F)F)cc1 (centres unmarked) [test compound 63, N-{2-[2-(2-chloro-4-fluorophenoxy)-5-cyanophenoxy]-1-cyano-1-methylethyl}-4-(pentafluorothio)benzamide]	–	3.3	–
CC(C#N)(COc1ccc(Cl)cc1C#N)NC(=O)c1ccc(S(F)(F)(F)(F)F)cc1 (centres unmarked) [test compound 11, N-[2-(4-chloro-2-cyanophenoxy)-1-cyano-1-methylethyl]-4-(pentafluorothio)-benzamide]	active	–	–
CC(C#N)(COc1ccc(C#N)cc1Br)NC(=O)c1ccc(S(F)(F)(F)(F)F)cc1 (centres unmarked) [test compound 29, N-[2-(2-bromo-4-cyanophenoxy)-1-cyano-1-methylethyl]-4-(pentafluorothio)-benzamide]	active	–	–
CC(C#N)(COc1ccc(Cl)cc1)NC(=O)c1ccc(S(F)(F)(F)(F)F)cc1 (centres unmarked) [test compound 10, N-[2-(4-chlorophenoxy)-1-cyano-1-methylethyl]-4-(pentafluorothio)benzamide]	active	–	–
CC(C#N)(COc1ccc(-c2cccnc2)cc1C(F)(F)F)NC(=O)c1ccc(S(F)(F)(F)(F)F)cc1 (centres unmarked) [test compound 82, N-{1-cyano-1-methyl-2-[4-pyridin-3-yl-2-(trifluoromethyl)phenoxy]ethyl}-4-(pentafluorothio)benzamide]	–	10	–
CC(C#N)(COc1cc(F)c(F)cc1Br)NC(=O)c1ccc(S(F)(F)(F)(F)F)cc1 (centres unmarked) [test compound 58, N-[2-(2-bromo-4,5-difluorophenoxy)-1-cyano-1-methylethyl]-4-(pentafluorothio)benzamide]	–	33	–

Molecule	active against L4 D. immitis at 10 μM [1, 3]	ED50 (dose at which the overall microfilaria motility was reduced by 50% compared to that of an untreated control) [2] [µM]	active against L4 D. immitis at 10 μM [1]
CC(C#N)(COc1ccc(F)cc1Br)NC(=O)c1ccc(S(F)(F)(F)(F)F)cc1 (centres unmarked) [test compound 31, N-[2-(2-bromo-4-fluorophenoxy)-1-cyano-1-methylethyl]-4-(pentafluorothio)-benzamide]	–	10	–
CC(C#N)(COc1cc(C#N)ccc1Oc1ccccc1)NC(=O)c1ccc(S(F)(F)(F)(F)F)cc1 (centres unmarked) [test compound 60, N-[1-cyano-2-(5-cyano-2-phenoxyphenoxy)-1-methylethyl]-4-(pentafluorothio)benzamide]	active	3.3	–
CC(C#N)(COc1c(F)cc(C#N)cc1C(F)(F)F)NC(=O)c1ccc(S(F)(F)(F)(F)F)cc1 (centres unmarked) [test compound 26, N-{1-cyano-2-[4-cyano-2-fluoro-6-(trifluoromethyl)phenoxy]-1-methylethyl}-4-(pentafluorothio)benzamide]	–	10	–
CO/N=C1\C[C@]2(C[C@@H]3C[C@@H](C/C=C(\C)C[C@@H](C)/C=C/C=C4\CO[C@@H]5[C@H](O)C(C)=C[C@@H](C(=O)O3)[C@]45O)O2)O[C@H](/C(C)=C/C(C)C)[C@H]1C [moxidectin, reference compound]	active	–	–
COc1ccccc1Oc1ccc(C#N)cc1OCC(C)(C#N)NC(=O)c1ccc(S(F)(F)(F)(F)F)cc1 (centres unmarked) [test compound 69, N-{1-cyano-2-[5-cyano-2-(2-methoxyphenoxy)phenoxy]-1-methylethyl}-4-(pentafluorothio)benzamide]	active	–	–
CC(C#N)(COc1cc(C#N)ccc1Cl)NC(=O)c1ccc(S(F)(F)(F)(F)F)cc1 (centres unmarked) [test compound 4, N-[2-(2-chloro-5-cyanophenoxy)-1-cyano-1-methylethyl]-4-(pentafluorothio)benzamide]	–	10	–
COc1ccc(OCC(C)(C#N)NC(=O)c2ccc(S(F)(F)(F)(F)F)cc2)c(C(F)(F)F)c1 (centres unmarked) [test compound 42, N-{1-cyano-2-[4-methoxy-2-(trifluoromethyl)phenoxy]-1-methylethyl}-4-(pentafluorothio)benzamide]	active	33	–
CC(C#N)(COc1cc(Br)cc(C#N)c1)NC(=O)c1ccc(S(F)(F)(F)(F)F)cc1 (centres unmarked) [test compound 33, N-[2-(3-bromo-5-cyanophenoxy)-1-cyano-1-methylethyl]-4-(pentafluorothio)-benzamide]	–	33	–
CC(C#N)(COc1ccc(C#N)cc1C(F)(F)F)NC(=O)c1ccc(S(F)(F)(F)(F)F)cc1 (centres unmarked) [test compound 7, N-{1-cyano-2-[4-cyano-2-(trifluoromethyl)phenoxy]-1-methylethyl}-4-(pentafluorothio)benzamide]	active	–	–
CC(C#N)(NC(=O)c1ccc(S(F)(F)(F)(F)F)cc1)C1Cc2cc(C#N)cc(Cl)c2O1 (centres unmarked) [test compound 80, N-[1-(7-chloro-5-cyano-2,3-dihydro-1-benzofuran-2-yl)-1-cyanoethyl]-4-(pentafluorothio)benzamide]	active	3.3	–
Cc1cc(C#N)ccc1OCC(C)(C#N)NC(=O)c1ccc(S(F)(F)(F)(F)F)cc1 (centres unmarked) [test compound 40, N-[1-cyano-2-(4-cyano-2-methylphenoxy)-1-methylethyl]-4-(pentafluorothio)-benzamide]	–	10	–
CC(C#N)(COc1ccc(I)cc1)NC(=O)c1ccc(S(F)(F)(F)(F)F)cc1 (centres unmarked) [test compound 13, N-[1-cyano-2-(4-iodophenoxy)-1-methylethyl]-4-(pentafluorothio)benzamide]	active	–	–
CC(C#N)(COc1ccc(Br)cc1F)NC(=O)c1ccc(S(F)(F)(F)(F)F)cc1 (centres unmarked) [test compound 32, N-[2-(4-bromo-2-fluorophenoxy)-1-cyano-1-methylethyl]-4-(pentafluorothio)-benzamide]	–	33	–
CC(C#N)(COc1ccccc1C(F)(F)F)NC(=O)c1ccc(S(F)(F)(F)(F)F)cc1 (centres unmarked) [test compound 14, N-{1-cyano-1-methyl-2-[2-(trifluoromethyl)phenoxy]ethyl}-4-(pentafluorothio)-benzamide]	active	10	–
CC(C#N)(COc1cc(C#N)ccc1Oc1ccc(Cl)cc1)NC(=O)c1ccc(S(F)(F)(F)(F)F)cc1 (centres unmarked) [test compound 64, N-{2-[2-(4-chlorophenoxy)-5-cyanophenoxy]-1-cyano-1-methylethyl}-4-(pentafluorothio)benzamide]	–	1	–
